Experimental data as given in article PMC12596500, “Affinity-selected peptide ligands specifically bind i-motif DNA and modulate c-Myc gene expression” (Nucleic Acids Research, 2025).

Columns and labels:
[1] = molecular target: short c-Myc iM-forming sequence; conditions: cited from earlier work
Protocol: To support the experiments on the stabilizing properties of the peptides, we also performed direct binding measurements of Pep-VSE and Pep-PTN using UV titrations. Binding curves are provided in Supplementary Fig. S11, and Kds are in Table 2. These experiments reveal tight binding of both PTN (0.93 ± 0.08 µM) and VSE (0.43 ± 0.03 µM) compared to other DNA structures. Although binding was detected for both peptides against c-MycG52, the G4-forming sequence in the complementary strand, there was no plateau at the concentrations examined. So, we have estimated a lower limit of 50 µM as the potent ...

c-MycC52 iM = assay: Fluorescent indicator displacement (FID) assay with Thiazole Orange; format: binding; conditions: 1 µM c-MycC52, 2 µM TO, 10 mM sodium cacodylate pH 6.6, peptides 25-200 µM, n = 3
Protocol: Fluorescent indicator displacement (FID) experiments used in this publication are based on the first FID assay developed for iM DNA [35]. The FID experiments were performed on a BMG CLARIOstar plate reader using 96-well, solid black flat-bottom plates. Thiazole Orange (TO) was the indicator, and the stock solution was prepared at 10 mM in DMSO. The TO stock was diluted into the appropriate buffer to 2 µM. Each well received 9 µl of the 2 µM TO solution, was excited at 430 nm, and fluorescence emission at 450 nm was measured; this was normalized to 0% to account for background fluorescence. One microlitre of […] DNA was added to each well and shaken in the plate reader for 30 s using double orbital shaking at 700 rpm and left for 10 min to equilibrate. Following equilibration, fluorescence emission was measured and normalized to 100% representing maximum fluorescence. Peptides were titrated starting at 25 µM, with 0.9 µl additions into each well in triplicate, until a final concentration of 200 µM was reached, and fluorescence emission was measured after each addition. Fluorescence emission for each well was normalized between 0% and 100%, which was taken away from 100 to give the percentage of displacement. The data were analyzed in Origin data analysis software and fitted with a hyperbolic dose–response curve from which the DC50 value was interpolated.
The relative binding of the five peptide ligands to the folded c-MycC52 iM was assessed via a FID assay using TO (Fig. 1). These experiments were performed in 10 mM sodium cacodylate at pH 6.6, the transitional pH of the c-Myc iM-forming sequence. As iM-formation is reduced at higher pH and higher ionic strength, additional stabilizing cations were avoided to allow the highest proportion of iM formation at the highest pH, to represent as close to physiological pH conditions as possible.
Figure 1. Concentration-dependent interaction of peptides with c-MycC52 iM determined via FID assay. The assay was performed with 1 µM c-MycC52 in 10 mM sodium cacodylate, pH 6.6, in the presence of 2 µM TO. Peptide ligands were added in increments of 25 µM up to a final concentration of 200 µM. Data are presented as mean ± SD (n = 3) and fitted using a Hill-Slope dose–response curve.

dsDNA (DS) = assay: CD melting of double-stranded DNA; format: binding; conditions: 10 µM DS, 10 mM NaCaco pH 6.6, 10 molar eqv. peptide vs buffer; n=2
Protocol: Circular Dichroism (CD) melting experiments were performed in a Jasco J-1500 spectropolarimeter with 10 µM DNA samples in 10 mM sodium cacodylate buffer at pH 6.6 using a 1 mm path length quartz cuvette. […] The samples were kept at 5°C for 5 min before starting the melt, with a temperature increase of 1°C/min, a 0.5°C data interval, and a 60-s holding time at each target temperature. Four scans were accumulated data pitch of 0.5 nm, a scanning speed of 200 nm/min, 1 s response time, 2 nm bandwidth, and 200 mdeg sensitivity. Furthermore, two CD melting experiment repeats were performed recording C-rich c-Myc at 288 and 320 nm, G-rich c-Myc at 264 and 320 nm, and dsDNA at 253 and 320 nm with the settings as described for full spectrum measurements. Data were zero corrected to 320 nm and baseline drift. The melting temperature (TM) was concluded using the Boltzmann or biphasic fitting curve on the folded fraction data using GraphPad Prism version 10.1.2. Data were processed as mean ± SEM (n = 4) and one-way ANOVA followed by Bonferroni post-hoc test to determine significant changes between peptides and controls.

Compound | Kd [1] [µM] | relative binding affinity ranking (TO displacement) (c-MycC52 iM) | destabilization of dsDNA (decrease in TM) (dsDNA (DS)) [°C]
NC[C@H]1O[C@H](O[C@H]2[C@H](O)[C@@H](O[C@H]3O[C@H](CO)[C@@H](O)[C@H](N)[C@H]3O)[C@H](N)C[C@@H]2N)[C@H](N)C[C@@H]1O [tobramycin] | 13 |  | 
EIEY TDHMK ELG [Pep-EIE, linear 12-mer peptide selected by phage display against c-MycC52; N-terminal acetylation, C-terminal amidation] |  | SLC > PTN > VSE > EIE > RVS | 
RVS TDHMK GRGG [Pep-RVS, linear 12-mer peptide selected by phage display against c-MycC52; N-terminal acetylation, C-terminal amidation] |  | SLC > PTN > VSE > EIE > RVS | 
SLCDIIRIEKVR [Pep-SLC, linear 12-mer peptide selected by phage display against c-MycC52; N-terminal acetylation, C-terminal amidation] |  | SLC > PTN > VSE > EIE > RVS | 5
